{"source": "patent US20260014119A1", "about": "“EMOPAMIL-BINDING PROTEIN INHIBITORS AND USES THEREOF” (BIOGEN MA INC., priority 2022, published 2026)"}
{"target": "T1, EBP (Homo sapiens, UniProt Q15125)", "T1 construct": "HEK293T cells were utilized as the source of EBP enzyme; endogenous in cells; host or cells: HEK293T", "T1 sequence (Q15125 whole entry)": "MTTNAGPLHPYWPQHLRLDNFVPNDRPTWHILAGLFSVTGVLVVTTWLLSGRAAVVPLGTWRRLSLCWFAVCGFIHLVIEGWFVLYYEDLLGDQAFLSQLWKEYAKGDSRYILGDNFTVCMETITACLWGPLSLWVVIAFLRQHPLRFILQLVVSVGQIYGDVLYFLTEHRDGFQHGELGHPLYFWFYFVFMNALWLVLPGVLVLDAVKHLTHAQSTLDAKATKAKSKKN", "assay": "EBP Functional Assay (EBP immunoaffinity LC-MS assay)", "type": "biochemical", "settings": "EBP enzyme from HEK293T cells; 30 min with inhibitor, then zymosterol-d5 at 37° C. for 4 h; percent conversion by LC-APCI MRM MS", "description": "The EBP immunoaffinity (IA) LC-MS assay measures the potency of small molecule inhibitors of EBP by quantifying their concentration-dependent changes in the enzyme's substrate and product using liquid chromatography atmospheric pressure chemical ionization multiple reaction monitoring mass spectrometry (LC-APCI MRM MS). HEK293T cells were utilized as the source of EBP enzyme. The enzyme was incubated with the small molecule inhibitors at variable concentrations for 30 min. Deuterated form of EBP substrate, zymosterol-d5 (Avanti Polar Lipids, Cat #700068P-1 mg), was then added and the plate was incubated at 37° C. for 4 h. Finally, the sterol isomers were extracted and injected to LC-APCI MRM MS. MRM transition used for the quantification for both zymosterol and […] (substrate and product of EBP enzymatic reaction, respectively) is 372.3-203.2, CE 30 and DP 80 in positive ion mode. Percent conversion of the zymosterol-d5 to dehydrolathosterol-d5 was used to derive IC50 curves. Tasin-1 (1′-[(4-Methoxyphenyl)sulfonyl]-4-methyl-1,4′-bipiperidine, CAS 792927-06-1) was used as the reference small molecule inhibitor.\nPercent conversion versus the compound concentration data were fit to the following 4-parameter logistic model to generate IC50 curves: […]", "units": {"IC50": "nM"}}
{"smiles": "Cn1nc(C2CC2)cc1S(=O)(=O)N1C[C@H]2C[C@H](NC3CC4(COC4)C3)C[C@H]2C1", "note": "[Example 20, (3aR,5s,6aS)-2-((3-Cyclopropyl-1-methyl-1H-pyrazol-5-yl)sulfonyl)-N-(2-oxaspiro[3.3]heptan-6-yl)octahydrocyclopenta[c]pyrrol-5-amine]", "IC50": "100 to 500"}
{"smiles": "Cn1nc(C2CC2)cc1S(=O)(=O)N1C[C@H]2C[C@H](NCC3(C)COC3)C[C@H]2C1", "note": "[Example 21, (3aR,5s,6aS)-2-((3-Cyclopropyl-1-methyl-1H-pyrazol-5-yl)sulfonyl)-N-((3-methyloxetan-3-yl)methyl)octahydrocyclopenta[c]pyrrol-5-amine]", "IC50": "< 100"}
{"smiles": "Cc1nc(C(F)(F)F)ccc1S(=O)(=O)N1C[C@H]2C[C@H](N(C)CC3CCOCC3)C[C@H]2C1", "note": "[Example 23, (3aR,5s,6aS)-N-Methyl-2-((2-methyl-6-(trifluoromethyl)pyridin-3-yl)sulfonyl)-N-((tetrahydro-2H-pyran-4-yl)methyl)octahydrocyclopenta[c]pyrrol-5-amine]", "IC50": "< 100"}
{"smiles": "Cc1nc(C(F)(F)F)ccc1S(=O)(=O)N1C[C@H]2C[C@H](NCC3CCOCC3)C[C@H]2C1", "note": "[Example 27, (3aR,5s,6aS)-2-((2-Methyl-6-(trifluoromethyl)pyridin-3-yl)sulfonyl)-N-((tetrahydro-2H-pyran-4-yl)methyl)octahydrocyclopenta[c]pyrrol-5-amine]", "IC50": "< 100"}
{"smiles": "Cc1nc(C(F)(F)F)ccc1S(=O)(=O)N1C[C@H]2C[C@H](NC3CCOCC3)C[C@H]2C1", "note": "[Example 28, (3aR,5s,6aS)-2-((2-Methyl-6-(trifluoromethyl)pyridin-3-yl)sulfonyl)-N-(tetrahydro-2H-pyran-4-yl)octahydrocyclopenta[c]pyrrol-5-amine]", "IC50": "< 100"}
{"smiles": "Cc1nc(C(F)(F)F)ccc1S(=O)(=O)N1C[C@H]2C[C@H](NCC3(C)COC3)C[C@H]2C1", "note": "[Example 29, (3aR,5s,6aS)-2-((2-Methyl-6-(trifluoromethyl)pyridin-3-yl)sulfonyl)-N-((3-methyloxetan-3-yl)methyl)octahydrocyclopenta[c]pyrrol-5-amine]", "IC50": "< 100"}
{"smiles": "Cc1nc(C(F)(F)F)ccc1S(=O)(=O)N1C[C@H]2C[C@H](NC3CC4(COC4)C3)C[C@H]2C1", "note": "[Example 30, (3aR,5s,6aS)-2-((2-Methyl-6-(trifluoromethyl)pyridin-3-yl)sulfonyl)-N-(2-oxaspiro[3.3]heptan-6-yl)octahydrocyclopenta[c]pyrrol-5-amine]", "IC50": "100 to 500"}
{"smiles": "Cc1cc(S(=O)(=O)N2C[C@H]3CN(C4CCOCC4)C[C@H]3C2)n(C)n1", "note": "[Example 31, (3aR,6aS)-2-((1,3-dimethyl-1H-pyrazol-5-yl)sulfonyl)-5-(tetrahydro-2H-pyran-4-yl)octahydropyrrolo[3,4-c]pyrrole]", "IC50": "100 to 500"}
{"smiles": "Cc1cc(C)c(S(=O)(=O)N2CC3CN(C4CCOCC4)CC3C2)c(C)c1", "note": "(stereo not drawn) [Example 32, 2-(Mesitylsulfonyl)-5-(tetrahydro-2H-pyran-4-yl)octahydropyrrolo[3,4-c]pyrrole]", "IC50": "< 100"}
{"smiles": "N#Cc1cc(F)cc(S(=O)(=O)N2C[C@H]3CN(C4CCOCC4)C[C@H]3C2)c1", "note": "[Example 33, 3-Fluoro-5-(((3aR,6aS)-5-(tetrahydro-2H-pyran-4-yl)hexahydropyrrolo[3,4-c]pyrrol-2(1H)-yl)sulfonyl)benzonitrile]", "IC50": "> 500"}
{"smiles": "COc1ccc(S(=O)(=O)N2C[C@H]3CN(C4CCOCC4)C[C@H]3C2)c(C)n1", "note": "[Example 34, (3aR,6aS)-2-((6-Methoxy-2-methylpyridin-3-yl)sulfonyl)-5-(tetrahydro-2H-pyran-4-yl)octahydropyrrolo[3,4-c]pyrrole]", "IC50": "< 100"}
{"smiles": "Cc1nc(C(F)(F)F)ccc1S(=O)(=O)N1C[C@H]2CN(C3CCOCC3)C[C@H]2C1", "note": "[Example 35, (3aR,6aS)-2-((2-Methyl-6-(trifluoromethyl)pyridin-3-yl)sulfonyl)-5-(tetrahydro-2H-pyran-4-yl)octahydropyrrolo[3,4-c]pyrrole]", "IC50": "< 100"}
